Converted amounts (≈) assume the structure as drawn. Read-outs that look alike come from different tables or passages of the source.
Tests used:
[1] = system: C. glabrata 2586 clinical strain; experiment: MIC90/MFC, EUCAST broth microdilution; type: cell-based, Candida glabrata
sheep red blood cells = experiment: Hemolysis assay; type: cell-based
Procedure: This test was performed according to a modified method. The hemolytic activity of the compounds was determined using sheep red blood cells. The blood was centrifuged (2000 RPM; 15 min) and rinsed 3 times with PBS. A total of 25 µL of erythrocytes for each sample were added to 500 µL of PBS to obtain the final concentration for the newly synthesized AABs: 0.25 µM, 0.5 µM; 1 µM, 2 µM; and 3 µM, and for β-AE, obtaining the following final concentrations: 100 µg/mL; 250 µg/mL; 500 µg/mL; 750 µg/mL; and 1000 µg/mL. The negative control (C−) consisted of erythrocytes suspended in PBS, and the positive control consisted of erythrocytes suspended in a 1% SDS solution. The samples were incubated for 2 h at 37 °C with shaking at 140 RPM. After this time, the blood cells were centrifuged (10 min; 2500 RPM), and 300 μL of the supernatant was transferred into a 96-well titration plate. Absorbance measurements were performed at a wavelength of λ = 540 nm. Measurements were performed in 10 repetitions. Finally, the values that were obtained from the samples treated with the test compound (OD test) were normalized relative to the positive (100% lysis; OD (C+)) and negative (untreated; OD (C−)) control samples to give the hemolysis ratio (HR) by using the following equation: HR (%) = OD test−OD (C−)/OD (C+) − OD (C−) × 100%.

[2] = system: C. glabrata 2853 clinical strain; experiment: MIC90/MFC, EUCAST broth microdilution; type: cell-based, Candida glabrata
C. glabrata 2586 biofilm = experiment: Biofilm eradication on polystyrene, fluorescence microscopy (Syto9/PI); type: cell-based, Candida glabrata
Procedure: (§1) C. glabrata biofilm eradication on polystyrene surfaces was assessed according to the following procedure: 1 mL of C. glabrata culture, 10^6 CFU/mL in RMPI 1640 MOPS-buffered medium, was pipetted into the wells of a 48-well adherent plate. Cultures were incubated at 37 °C for 72 h with shaking (400 RPM). […] Non-treated cells were used as the control. This experiment was carried out in triplicate. The analysis of the biofilm eradication of C. glabrata strains on polystyrene surfaces was performed using fluorescence microscopy (FM). For further information, see Section 4.12. below.
(§2) The 72 h biofilm of C. glabrata strains on polystyrene surfaces was stained on 48-well adherent plates with 1 µL of propidium iodide (Ex λ = 543 nm/Em λ = 617 nm) and 1 µL of SYTO9 (Ex λ = 488 nm/Em λ = 503 nm) for 30 min using a LIVE/DEAD BacLight Bacterial Viability Kit (Thermo Fisher Scientific, Waltham, MA USA). Imaging was performed using a fluorescence microscope (FM) BX51 (Olympus, Tokyo, Japan) equipped with an Orca Flash 40 camera (Hamamatsu, Hamamatsu City, Japan) and 10× objective Plan APO. Scale bar = 100 µm. Detailed computer qualitative and quantitative analyses of the obtained pictures were performed by estimating the coverage area on the polystyrene plate (the percentage of the area occupied by the fungal biofilm). The cell viability analysis was performed by calculating the fluorescence intensity of the dyes (Syto9/PI) used. The acquired images were processed and analyzed using Fiji/ImageJ software ver. 1.53c (NIH, Bethesda, MD, USA). First, maximum intensity projections (MIPs) were obtained from stacks of images. The areas of the binary images were transferred into the original live and dead channel MIP images. The mean fluorescence intensities of all detected objects per field of view were calculated using ImageJ’s Analyze Threshold function (Software: ImageJ version 1.53 from Softonic).

C. glabrata 2853 biofilm = experiment: as above; type: cell-based, Candida glabrata
Procedure: as §1, §2

[3] = system: C. glabrata ATCC 90030 biofilm; experiment: as above; type: cell-based, Candida glabrata
Procedure: as §1, §2

[4] = system: Balb/3T3 mouse embryonic fibroblasts; experiment: Cell proliferation assay (MTT test); type: cell-based; set-up: Survival of the tested cell line: dose or concentration left out as unconfirmed; conditions: 24 h
Procedure: Balb/3T3 (ATCC CCL-163) mouse embryonic fibroblasts were cultured in DMEM medium supplemented with 10% fetal bovine serum, 1 mM L-glutamine, and a 1% penicillin/streptomycin solution and were used for our cytotoxicity studies. The cells were cultured at 37 °C and 5% CO2 until the cell density of 10^6 mL^−1 was obtained. Such cells were then seeded in 24-well tissue microplates (2 × 10^4 cells per well) and allowed to adhere overnight under the abovementioned conditions. Cytotoxicity tests were carried out on the cells prepared in this way.
The newly synthesized AABs (C9, C11, C13, and C15) were selected based on previous studies. They were analyzed at the concentrations of 0.25, 0.5, 1, 2, and 3 µM. […] The BALB-3T3 cells were treated with the prepared mixtures, dissolved in a complete cell culture medium, and then incubated for 24 h under the abovementioned conditions. Three independent replicates were performed for each combination of compounds.
The cytotoxic effect of the tested compounds in combination with β-AE was evaluated by measuring mitochondrial dehydrogenase activity using the MTT assay. After a 24 h incubation period, the medium supplemented with the 1mM MTT solution was added to each well. The cultures were continued for another 4 h under the conditions enriched with 5% CO2. After this time, the supernatant was collected, and MTT formazan was extracted from the cells using DMSO. The reaction was then stopped with Sörensen buffer (0.1 mol/L glycine; 0.1 mol/L NaCl; and pH 10.5). The percentage of cytotoxicity was calculated by comparing the absorbance values (λ = 560 nm) of the test sample to the control sample, which was untreated fibroblast cells. In the test performed, the negative control (C−) (sample not treated; PBS added) and positive control (C+) were fibroblast cells treated with 1% SDS [60].

C. glabrata ATCC 90030 [5] = experiment: MIC90/MFC, EUCAST broth microdilution; type: cell-based, Candida glabrata
C. glabrata ATCC 90030 [6] = experiment: Interaction of AABs (3 µM) with antifungal agents, modified checkerboard; type: cell-based, Candida glabrata
[7] = Nakaseomyces glabratus, AAB alone, read-out: MIC converted to

Compound: CCCCCCCCCC(=O)N(C)CCC[N+](C)(C)CC(=O)[O-] [C9]
- MIC90 ([1]; AAB alone): 3 µM/mL
- MIC [1, 7]: 985 µg/mL (≈ 3000 µM)
- Hemolysis (sheep red blood cells; all concentrations tested (0.25 up to 3 µM)): not hemolytic at all concentrations tested
- MIC90 ([2]; AAB alone): 1 µM/mL
- MIC [2, 7]: 328 µg/mL (≈ 1000 µM)
- Biofilm surface area (C. glabrata 2586 biofilm; C9 combined with β-AE, optimal concentration configuration, control 73.17%): 2.1%
- Percentage of live cells (C. glabrata 2586 biofilm; C9 in combination with β-AE, 72 h, control 97.99%): 1.93%
- viability at 1 µM (C. glabrata 2586 biofilm; Nakaseomyces glabratus, 2586BIOFILM, AAB alone 1 μM, 72 h, read-out: Biofilm Viability [%] 2586 Live): 3.28%
- viability at 2 µM (C. glabrata 2586 biofilm; Nakaseomyces glabratus, 2586BIOFILM, AAB alone 2 μM, 72 h, read-out: Biofilm Viability [%] 2586 Live): 3.01%
- viability at 3 µM (C. glabrata 2586 biofilm; Nakaseomyces glabratus, 2586BIOFILM, AAB alone 3 μM, 72 h, read-out: Biofilm Viability [%] 2586 Live): 2.52%
- Biofilm surface area (C. glabrata 2853 biofilm; C9 combined with β-AE, optimal concentration configuration, control 84.52%): 1.12%
- Percentage of live cells (C. glabrata 2853 biofilm; C9 in combination with β-AE, 72 h, control 97.46%): 3.33%
- viability at 1 µM (C. glabrata 2853 biofilm; Nakaseomyces glabratus, 2853BIOFILM, AAB alone 1 μM, 72 h, read-out: Biofilm Viability [%] 2853 Live): 82.2%
- viability at 2 µM (C. glabrata 2853 biofilm; Nakaseomyces glabratus, 2853BIOFILM, AAB alone 2 μM, 72 h, read-out: Biofilm Viability [%] 2853 Live): 76.2%
- viability at 3 µM (C. glabrata 2853 biofilm; Nakaseomyces glabratus, 2853BIOFILM, AAB alone 3 μM, 72 h, read-out: Biofilm Viability [%] 2853 Live): 66.4%
- Biofilm surface area ([3]; C9 combined with β-AE, optimal concentration configuration, control 88.77%): 1.37%
- Percentage of live cells ([3]; C9 in combination with β-AE, 72 h, control 98.35%): 1.64%
- viability at 1 µM ([3]; Nakaseomyces glabratus, ATCC90030, AAB alone 1 μM, 72 h, read-out: Biofilm Viability [%] 90030 Live): 83.6%
- viability at 2 µM ([3]; Nakaseomyces glabratus, ATCC90030, AAB alone 2 μM, 72 h, read-out: Biofilm Viability [%] 90030 Live): 23.8%
- viability at 3 µM ([3]; Nakaseomyces glabratus, ATCC90030, AAB alone 3 μM, 72 h, read-out: Biofilm Viability [%] 90030 Live): 21.4%
- Surviving cells ([4]; 0.25 to 3 µM/mL): 100%
- MIC90 (C. glabrata ATCC 90030 [5]; ATCC 90030, AAB alone): 3 µM/mL
- MIC (C. glabrata ATCC 90030 [5]; Nakaseomyces glabratus, ATCC90030, reference strain, AAB alone, read-out: MIC converted to): 985 µg/mL (≈ 3000 µM)

Compound: β-aescin
- MFC [1]: 256 µg/mL
- MIC90 [1]: 256 µg/mL
- Hemolysis (sheep red blood cells; 100 up to 1000 µg/mL, 2 h, 37 °C): hemolytic at all concentrations tested
- MFC [2]: 128 µg/mL
- MIC90 [2]: 128 µg/mL
- Biofilm Viability [%] 2586 Live (C. glabrata 2586 biofilm; 1 MIC β-AE, 72 h): 9.33%
- Area of the biofilm (C. glabrata 2586 biofilm; β-AE 1 × MIC, 72 h, control 73.17%, listed as β-AE): 59.3%
- Biofilm Viability [%] 2853 Live (C. glabrata 2853 biofilm; 1 MIC β-AE, 72 h): 92.13%
- Area of the biofilm (C. glabrata 2853 biofilm; β-AE 1 × MIC, 72 h, control 84.52%, listed as β-AE): 45.63%
- Biofilm Viability [%] 90030 Live ([3]; 1 MIC β-AE, 72 h): 76.70%
- Area of the biofilm ([3]; β-AE 1 × MIC, 72 h, control 88.77%): 68.98%
- Multiplicity factor (MF) with C9 (C. glabrata ATCC 90030 [6]; C9 3 µM, |MF| = MIC90 alone/MIC90 with AAB): 1
- MIC90 of antimycotic combined with C9 (C. glabrata ATCC 90030 [6]; C9 at constant 3 µM, dilutions in µg/mL): 128
- Multiplicity factor (MF) with C11 (C. glabrata ATCC 90030 [6]; C11 3 µM): 1
- MIC90 of antimycotic combined with C11 (C. glabrata ATCC 90030 [6]; C11 at constant 3 µM, dilutions in µg/mL): 128
- Multiplicity factor (MF) with C13 (C. glabrata ATCC 90030 [6]; C13 3 µM): 1
- MIC90 of antimycotic combined with C13 (C. glabrata ATCC 90030 [6]; C13 at constant 3 µM, dilutions in µg/mL): 128
- Multiplicity factor (MF) with C15 (C. glabrata ATCC 90030 [6]; C15 3 µM): 1
- MIC90 of antimycotic combined with C15 (C. glabrata ATCC 90030 [6]; C15 at constant 3 µM, dilutions in µg/mL): 128
- Survival of the tested cell line ([4]; 64–512): 83–85%
- MFC (C. glabrata ATCC 90030 [5]; ATCC 90030): 256 µg/mL
- MIC90 (C. glabrata ATCC 90030 [5]; ATCC 90030): 128 µg/mL

— publication PMC10932281, “A Combination of β-Aescin and Newly Synthesized Alkylamidobetaines as Modern Components Eradicating the Biofilms of Multidrug-Resistant Clinical Strains of Candida glabrata” (International Journal of Molecular Sciences, 2024)
